Literature values, collected in patent US20160270390A1, “POLYMERIC FILM FOR AG[…] STORAGE, […] THEREFROM AND RELATED METHODS OF AG[…] STORAGE” (priority 2012, published 2016).

Tested on: insect pests
Details: Zimbabwe, grain damage of 92% reported due to insect pests

For CCOC(=O)CC(SP(=S)(OC)OC)C(=O)OCC (stereo not shown) [malthion], the “reduction of grain damage in stored maize” value is listed as 10%.
